These are literature values, as cited in patent US20260275282A1, “CELLS BEING HIGHLY ENRICHED IN SASP FACTORS, AND COMPOSITION COMPRISING SAID CELLS” (EVOMEDIS GMBH, priority 2022, published 2026).

Peptide text beside a SMILES is read from it.

The first series relates to protein secretion (SASP factor secretion). The following applies: 1 mM extracellular Ca2 - calcium dependent.
In the case of `CCCC[C@@H](C=O)NC(=O)[C@H](CC(C)C)NC(=O)OCc1ccccc1` [Calpeptin], the Concentration is recorded as 80 μM (1 mM.

The same series, now with this note: + 2-5 nM Vinblastine; actin depolymerizer with microtubule targeting-agent.
Regarding Methyl-β-cyclodextrin, the “Concentration in combination with Vinblastine” value is given as 1 mM + 2-5 nM.

The series is the same for the next values; noted with them: concentration range that results in significant reduction, preferably inhibition, of SASP factor secretion.
Take `CC(Oc1ccc(O)cc1)(P(=O)(O)O)P(=O)(O)O` [L-690,330]: the Concentration is 100 µM.

As to `CCCC[C@@H](C)/C=C(C)/C=C(\C)C(=O)NC1=C[C@@](O)(/C=C/C=C/C=C/C(=O)NC2=C(O)CCC2=O)[C@@H]2O[C@@H]2C1=O` [Manumycin A], the Concentration is 1 µM.

In the case of `C[C@@H]1CN2CCC[C@H]3CCCCCC[C@H]4CCN5CCC[C@@](O)(CCCCCC[C@@H]1O[C@H]32)[C@H]5O4` [Xestospongin B], the Concentration was 0.08 to 10 µM.

On to `C1CCC(C(CC2CCCCN2)C2CCCCC2)CC1` (centres unmarked) [Perhexiline], for which the Concentration was 10 µM.

As for `Cn1cnc(N)c2ncnc1-2` [3-Methyladenine], the Concentration was 5000 µM.

On to `CCCCc1ccc2[nH]c(NC(=O)OC)nc2c1` [Parbendazole], for which the Concentration is 10 µM.

On to `CC(NCCC(c1ccccc1)c1ccccc1)c1ccccc1` (centres unmarked) [Fendiline], for which the Concentration is 1 to 100 µM.

On to `COc1ccc(CCN2CCC(Nc3nc4ccccc4n3Cc3ccc(F)cc3)CC2)cc1` [Astemizole], for which the Concentration was 20 to 40 µM.

Take `CN(C)CCCN1c2ccccc2CCc2ccccc21` [Imipramine]: the Concentration was 1 µM.

`O=CC[C@@H](O)[C@H](O)[C@H](O)CO` [2-Deoxyglucose]: the Concentration was 50000 µM.

On to Cyclclosporine A, for which the Concentration is 10 to 40 µM.

As for `NC(=O)N1CCC(CC(=O)N2CCC([C@H]3c4ncc(Br)cc4CCc4cc(Cl)cc(Br)c43)CC2)CC1` [Lonafarnib], the Concentration is 5 µM.

As to `CN[C@H]1CC[C@@H](c2ccc(Cl)c(Cl)c2)c2ccccc21` [Sertraline], the Concentration is 10 µM.

With `CC[C@@]1([C@@H]2O[C@@H]([C@H]3O[C@@](O)(CO)[C@H](C)C[C@@H]3C)C[C@@H]2C)CC[C@H]([C@]2(C)CC[C@]3(C[C@H](O)[C@@H](C)[C@@H]([C@@H](C)[C@@H](OC)[C@H](C)C(=O)O)O3)O2)O1` [Monensin], the Concentration is 10 µM.

`C[C@@H](N)[C@H]1CC[C@H](C(=O)Nc2ccncc2)CC1` [Y27632]: the Concentration was 5 µM.

Turning to `CC(=O)N[C@@H](CC(C)C)C(=O)N[C@@H](CC(C)C)C(=O)N[C@H](C=O)CCCNC(=N)N` [Leupeptin], the Concentration was 0.08 to 0.096 µM.

In the case of `CSCC[C@@H](C=O)NC(=O)[C@H](CC(C)C)NC(=O)[C@H](CC(C)C)NC(C)=O` [Calpain inhibitor II, N-acetyl-leucyl-leucyl-methioninal] (Ac-Leu-Leu-Met-aldehyde), the Concentration was 10 µM.

For the compound `COc1cc2c(c(OC)c1OC)-c1ccc(OC)c(=O)cc1[C@@H](NC(C)=O)CC2` [Colchicine], the Concentration is 2 to 5 µM.

`CN(C)C(=N)N=C(N)N` [Metformin]: the Concentration is 5 µM.

As for `CNC(=O)c1cc(Oc2ccc(NC(=O)Nc3ccc(Cl)c(C(F)(F)F)c3)cc2)ccn1` [Sorafenib], the Concentration is 5 to 10 µM.

Take `CNCCC(Oc1ccc(C(F)(F)F)cc1)c1ccccc1` (centres unmarked) [Fluoxetine]: the Concentration was 30 to 100 µM.

Regarding `Oc1ccc(C=Cc2cc(O)cc(O)c2)cc1` [Resveratrol], the Concentration was 12.5 to 50 µM.

Take `Fc1ccc([C@@H]2CCNC[C@H]2COc2ccc3c(c2)OCO3)cc1` [Paroxetine]: the Concentration was 10 to 20 µM.

For `O=C(CCCN1CCC2(CC1)C(=O)NCN2c1ccccc1)c1ccc(F)cc1` [Spiperone], the Concentration is 10 to 20 µM.

For another series, the system named is microtubules assembly. The following applies: half of the maximal concentration necessary to inhibit the microtubules assembly.
For `CC[C@]1(O)C[C@@H]2CN(CCc3c([nH]c4ccccc34)[C@@](C(=O)OC)(c3cc4c(cc3OC)N(C)[C@H]3[C@@](O)(C(N)=O)[C@H](O)[C@]5(CC)C=CCN6CC[C@]43[C@@H]65)C2)C1` [Vindesine], the IC50 is 0.8 nM.

As for `CC[C@]1(O)C[C@@H]2CN(CCc3c([nH]c4ccccc34)[C@@](C(=O)OC)(c3cc4c(cc3OC)N(C)[C@H]3[C@@](O)(C(=O)OC)[C@H](OC(C)=O)[C@]5(CC)C=CCN6CC[C@]43[C@@H]65)C2)C1` [Vinblastine], the IC50 was 0.8 nM.

On to `CC(=O)O[C@H]1C(=O)[C@@]2(C)[C@H]([C@H](OC(=O)c3ccccc3)[C@]3(O)C[C@H](OC(=O)[C@H](O)[C@@H](NC(=O)c4ccccc4)c4ccccc4)C(C)=C1C3(C)C)[C@]1(OC(C)=O)CO[C@@H]1C[C@@H]2O` [Paclitaxel (Taxol), Paclitaxel], for which the IC50 was 8 nM.

Turning to `COC(=O)Nc1nc2ccc(C(=O)c3cccs3)cc2[nH]1` [Nocodazole], the IC50 is 0.8 nM.

Take `CC[C@]12C=CCN3CC[C@@]4(c5cc([C@@]6(C(=O)OC)C[C@@H]7C[C@@H](C(C)(F)F)CN(Cc8c6[nH]c6ccccc86)C7)c(OC)cc5N(C)[C@H]4[C@@](O)(C(=O)OC)[C@@H]1OC(C)=O)[C@@H]32` [Vinflunine]: the IC50 is 0.8 nM.

Take `CC[C@]1(O)C[C@H]2CN(CCc3c([nH]c4ccccc34)[C@@](C(=O)OC)(c3cc4c(cc3OC)N(C=O)[C@H]3[C@@](O)(C(=O)OC)[C@H](OC(C)=O)[C@]5(CC)C=CCN6CC[C@]43[C@@H]65)C2)C1` [Vincristine]: the IC50 was 0.8 nM.

Consider `C/C1=C/C[C@@H](/C(C)=C/c2csc(C)n2)OC(=O)C[C@H](O)C(C)(C)C(=O)[C@H](C)[C@@H](O)[C@@H](C)CCC1` [Desoxyepothilone B], for which the IC50 was 13 nM.

Consider `CCC1=C[C@@H]2CN(C1)Cc1c([nH]c3ccccc13)[C@@](C(=O)OC)(c1cc3c(cc1OC)N(C)[C@H]1[C@@](O)(C(=O)OC)[C@H](OC(C)=O)[C@]4(CC)C=CCN5CC[C@]31[C@@H]54)C2` [Vinorelbine], for which the IC50 is 0.8 nM.

For the next series, the system named is kinesin. The following applies: Kinesin inhibitors: Group V; read-out: Concentration (IC50).
As to `Cc1ccc(C(=O)N(CCCN)[C@@H](c2nc3cc(Cl)ccc3c(=O)n2Cc2ccccc2)C(C)C)cc1` [Ispinesib (SB715992), Ispinesib], the IC50 is 10 to 30 µM.

For the next series, the system named is PI3K-mTOR. The note with it: Dual inhibitor of PI3K-mTOR; read-out: Concentration (IC50).
For `Oc1cccc(-c2nc(N3CCOCC3)c3oc4ncccc4c3n2)c1` [PI-103], the IC50 was 8 to 150 nM.

Another series concerns proteasome. The following applies: Inhibitor of proteasome; read-out: Concentration (IC50).
With `CC(C)C[C@H](NC(=O)[C@H](Cc1ccccc1)NC(=O)c1cnccn1)B(O)O` [Bortezomib], the IC50 is […].

A further series relates to autophagy. The following applies: BH3 domain mimetics; read-out: Concentration (IC50).
Consider `CN(C)CC[C@H](CSc1ccccc1)Nc1ccc(S(=O)(=O)NC(=O)c2ccc(N3CCN(Cc4ccccc4-c4ccc(Cl)cc4)CC3)cc2)cc1[N+](=O)[O-]` [ABT-737], for which the IC50 was 5 to 10 µM.
